Results published in US4755510A, “Novel anticonvulsive tetrahydro-1,2,4-oxadiazine-5-thion derivatives and use” (Richter Gedeon Vegyeszeti Gyar R.T., priority 1984, dated 1988).
Read-outs that look alike come from different tables or passages of the source.

Assays:
Male CFLP (LATI) mice [1] = assay: Maximal electroshock (MES), protection from tonic extensoric spasm of the lower limbs; assay type: in vivo; conditions: Mus musculus, po; for ED50: read-out: Anticonvulsive activity MES ED50; for inhibition at 30 mg/kg: read-out: MES inhibition (%)
Protocol: (§1) The compound to be tested was suspended in 2 percent aqueous Tween 80 (polyoxyethylene sorbitane monolaurate) solution and it was orally administered to the animals through a bougie in a dose of 30 mg/kg when the anticonvulsive activity was tested, while in a dose of 120 mg/kg when the neurotoxic activity was examined. The effect triggered was measured after 1 hour of the administration. Male CFLP (LATI) mice having a weight of 18 to 22 g were used in the tests.
The animals were shocked with a corneal electrode (20 mA, 0.2 sec.) (H. Schachs Elektronik, Marchs, Augstatten, Germany, "schockreizgerat" typ. 207) according to the method of E. A. Swinyard et al. (J. Pharmacol. Exp. Ther. 106, 318 (1952)]. 100% of the control animals responded to the stimulus by the tonic extensoric spasm of the lower limbs. The lack of these occurences was attributed to the protection obtained by the treatment.
MES: maximal electroshock

Male CFLP (LATI) mice [2] = assay: Spasm stimulated by Pentetrazole (PTT); assay type: in vivo; conditions: po; for ED50: Mus musculus, read-out: Anticonvulsive activity PTT TE (tonic extensoric spasm) ED50
Protocol: as §1
According to the method of G. M. Everett and R. K. Richard [J. Pharmacol. Exp. Ther., 81, 402, (1944)] the test animals were treated with 125 mg/kg of Pentetrazole (pentamethylene tetrazole) after 1 hour of the administration of the compound to be tested. The lack of the clonic spasm (KI) and the tonic extensoric spasm of the lower limbs (TE) was attributed to the protection obtained as a result of the treatment.
PTT: inhibition of the spasm stimulated by pentetrazole
TE: tonic extensoric spasm

Acute toxicity (LD50) = assay type: in vivo; conditions: mouse, in vivo, po; one dose, observation through 14 days; probit analysis; read-out: Acute tox. LD50
Protocol: as §1
(§2) The toxicity of the compounds was examined after the administration of 1000 mg/kg of the test compound in one dose by an observation through 14 days. The LD50 value (50 percentile lethal dose) was calculated by probite analysis on the basis of the percentile ratio of the animals died within the 14 days.

Male CFLP (LATI) mice [3] = assay: Spasm stimulated by strychnine (Str); assay type: in vivo; conditions: Mus musculus, po, 1 h, read-out: Anticonvulsive activity Str (spasm stimulated by strychnine) ED50
Protocol: as §1
According to the method of T. L. Kerley et al. [J. Pharmacol. Exp. Ther. 132, 360 (1961)] the test animals were i. p. treated with 2.5 mg/kg of strychnine after 1 hour of the administration of the active ingredient to be tested.
Str: inhibition of the spasm stimulated by strychnine

[4] = Neurotoxicity (muscle uncoordination), rotating bar (FR); parameters: species or system mice (male CFLP (LATI)); conditions: mouse, in vivo, po
Protocol: as §1
The change of the coordinated muscle motion was examined on a rotating bar according to the method of C. J. Carr [J. Pharmacol. Exp. Ther., 121, 354 (1957)] (diameter: 20 mm, number of revolutions: 12/minute). The trained control animals could stay on the bar for 120 seconds. After 1 hour of the administration of the test compound, it was examined which percent of the animals fell down from the rotating bar within 120 seconds.

Male CFLP (LATI) mice [5] = assay: Acute toxicity (LD50); assay type: in vivo; conditions: one dose, observation through 14 days; probit analysis
Protocol: as §1, §2

CC(=O)N1O[C@H](C)C(=S)N[C@@H]1c1ccccc1 (relative stereo) [A]
ED50 (Male CFLP (LATI) mice [1]; 1 h): 11.9 mg/kg | ED50 (Male CFLP (LATI) mice [2]; 1 h): 6.1 mg/kg | LD50 at 336 h (Acute toxicity (LD50)): 1000 mg/kg

CC(=O)N1O[C@H](C)C(=S)N[C@@H]1c1ccccc1C (relative stereo) [C, 2-Acetyl-3-(2-methylphenyl)-6-methyl-tetrahydro-1,2,4-oxadiazine-5-thion]
ED50 (Male CFLP (LATI) mice [1]; 1 h): 10 mg/kg | ED50 (Male CFLP (LATI) mice [2]; 1 h): 4.3 mg/kg | ED50 (Male CFLP (LATI) mice [3]): 25.6 mg/kg | LD50 at 336 h (Acute toxicity (LD50)): 1000 mg/kg

CC(=O)N1O[C@H](C)C(=S)N[C@@H]1c1ccc(N(C)C)cc1 (relative stereo) [D]
ED50 (Male CFLP (LATI) mice [1]; 1 h): 30 mg/kg | ED50 (Male CFLP (LATI) mice [2]; 1 h): 9.9 mg/kg | Anticonvulsive activity PTT K1 (clonic spasm) ED50 (Male CFLP (LATI) mice [2]; 1 h): 0 mg/kg | LD50 at 336 h (Acute toxicity (LD50)): 1000 mg/kg

CC[C@H]1ON(C(C)=O)[C@@H](c2ccccc2)NC1=S (relative stereo) [F]
inhibition at 30 mg/kg (Male CFLP (LATI) mice [1]; 1 h): 40% | ED50 (Male CFLP (LATI) mice [2]; 1 h): 15.4 mg/kg | Anticonvulsive activity PTT K1 (clonic spasm) ED50 (Male CFLP (LATI) mice [2]; 1 h): 0 mg/kg | LD50 at 336 h (Acute toxicity (LD50)): 1000 mg/kg

CC(=O)N1O[C@H](C)C(=S)N[C@@H]1c1ccccc1 [B]
ED50 (Male CFLP (LATI) mice [1]; 1 h): 16.1 mg/kg | ED50 (Male CFLP (LATI) mice [2]; 1 h): 12.6 mg/kg | LD50 at 336 h (Acute toxicity (LD50)): 1000 mg/kg

O=C1NC(=O)C(c2ccccc2)(c2ccccc2)N1 [Compound K1, Diphenyl hydantoin, reference compound]
ED50 (Male CFLP (LATI) mice [1]; 1 hour after administration, corneal electrode 20 mA, 0.2 sec): 8.3 mg/kg | ED50 (Male CFLP (LATI) mice [2]; Pentetrazole 125 mg/kg 1 hour after administration, tonic extensoric spasm): 9.9 mg/kg | TD50 at 1 h [4]: 47.7 mg/kg | Acute tox. LD50 (Male CFLP (LATI) mice [5]): 278 mg/kg

CC(=O)N1OCC(=O)NC1c1ccccc1 (centres unmarked) [Compound K2, 2-Acetyl-3-phenyl-tetrahydro-1,2,4-oxadiazine-5-one, reference compound]
ED50 (Male CFLP (LATI) mice [1]; 1 h): 22.7 mg/kg | ED50 (Male CFLP (LATI) mice [2]; 1 h): 13.4 mg/kg | TD50 at 1 h ([4]; rotating bar 12/minute, 120 seconds, 1 hour after administration, read-out: Neurotox. FR (rotating bar) ED50): 130 mg/kg

CC(=O)N1OCC(=S)NC1c1ccccc1 (centres unmarked) [E, 2-Acetyl-3-phenyl-tetrahydro-1,2,4-oxadiazine-5-thion]
inhibition at 30 mg/kg (Male CFLP (LATI) mice [1]; 1 h): 10% | ED50 (Male CFLP (LATI) mice [2]; 1 h): 16.6 mg/kg | Anticonvulsive activity PTT K1 (clonic spasm) ED50 (Male CFLP (LATI) mice [2]; 1 h): 0 mg/kg | LD50 at 336 h (Acute toxicity (LD50)): 1000 mg/kg
